Data on 9 molecules can be found in publication PMC5090206, “Fluselenamyl: A Novel Benzoselenazole Derivative for PET Detection of Amyloid Plaques (Aβ) in Alzheimer’s Disease” (Scientific Reports, 2016).

In data set [1] the test system is AD homogenates. The data set can be described thus: Competition of unlabeled ligands against [18F]-9 binding on AD homogenates. Also noted: species or system human. Particulars: for displacement of [18F]-9 specific binding: AD homogenates, unlabeled competitor. How it is done:
Literature precedents indicate the presence of at least three different binding sites, characterized as BS1, BS2 and BS3 on the Aβ fibrils in vitro[24] and extracts from AD homogenates. […] Further, to evaluate ability of [^18F]-9 for labeling Aβ in autopsy confirmed human brain sections, autoradiography and immunohistochemical correlations were also performed.
On the technique in general: Loss of bound radioactivity is the signal in a displacement assay; it reports binding, not function.

Data set [2] has as its target AD homogenates. Particulars: read-out: binding affinity with AD homogenates; cited from earlier work.
For data set [3] the following is noted: comparison values, no reference given; cited from earlier work.
The conditions of data set [4]: normal mice, cited from earlier work.
Data set [5] has as its target Aβ plaques (Homo sapiens, UniProt P05067). The data set can be described thus: Histological staining of human AD brain tissue sections. Particulars: AD frontal lobe sections. The protocol: To further assess ability of the 5 to label Aβ plaques in human brain, staining experiments were also performed with postmortem tissues from clinically-characterized AD patients[35][36] As a positive control, a highly specific anti-Aβ antibody (10D5, Eli Lilly, Indianapolis, IN) was used to ascertain the presence of Aβ plaques (Fig. 4A), using well-established procedures for assessment of Aβ plaques in postmortem brain[37]. […] Noticeably, 5 also indicated proficient and distinct labeling of plaque and leptomeningeal vessels (cerebral amyloid angiopathy; CAA) (Fig. 4B). […] This high specificity of 5 for Aβ could be attributed to presence of a benzoselenazole ring within Fluselenamyl. Overall, the ability and sensitivity of 5 to detect diffuse plaques and specificity for AD could represent an important advancement to enable PET imaging of mildly demented individuals, prior to onset of symptoms.
Scientific Reports Version of August 4, 2016
µm) were cut in the coronal plane on a freezing sliding microtome and stored at -20°C. 7,8 Tissue was stained as free-floating sections. Prior to staining, tissue sections were permeabilized with PBS-Tritron-X-100 (0.25%) for 30 minutes, and then blocked with 1% non-fat dry milk in PBS-Ttiton-X-100 for 60 minutes.
Hippocampus tissue sections of APP+/-/PS1+/- and age-matched control BL/6 (WT, SI Figure 3) were incubated with fluorescent molecule 5 (100 nM dissolved in 1% ethanol in PBS) for 60 minutes, and washed 3-times with PBS-Triton-X-100.9 Thereafter, tissue sections were incubated with mouse-anti-Aβ (mHJ3.4) 7 that was directly conjugated to Alexa 568 for 90 minutes and washed 3-times with PBS-Triton-X-100.
Tissue sections were mounted onto SuperFrost Plus slides, dried overnight at room temperature, and then sealed with Fluoromount G (Southern Biotech, Birmingham, AL). […]
other neurodegenerative diseases (SI, Figure 4A & 4B). Sections were visualized, processed, and analyzed using a Pascal confocal microscope. […]

Like-named read-outs stand apart in the source and are kept apart here.

Sequence of Aβ plaques (P05067 672-711 limits assumed): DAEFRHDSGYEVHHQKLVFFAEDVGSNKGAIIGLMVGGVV

Regarding `O=C(O)c1cc(/N=N/c2ccc(-c3ccc(/N=N/c4ccc(O)c(C(=O)O)c4)cc3)cc2)ccc1O` [Chrysamine G], in data set [1], the “displacement of [18F]-9 specific binding” value was “no displacement”.
On to `CN(C)c1ccc(-c2cn3cc(I)ccc3n2)cc1` [IMPY], for which the “displacement of [18F]-9 specific binding” value in data set [1] is “significant displacement”. In data set [1] (competition against [18F]-9 on AD homogenates), the affinity, expressed as Ki, was 6.3 nM.
Regarding `[11CH3]Nc1ccc(-c2nc3ccc(O)cc3s2)cc1` [PiB], in data set [1], the “displacement of [18F]-9 specific binding” value is on record as “significant displacement”.
Take `CNc1ccc(/C=C/c2ccc(OCCOCCOCCF)nc2)cc1` [[^18F]-AV-45]: the Kd in data set [2] is 3.7 nM.
In the case of `CNc1ccc(/C=C/c2ccc(OCCOCCOCC[18F])nc2)cc1` [[^18F]-AV-45], in data set [3], the log P – broadly, the decadic logarithm of the partition coefficient of the neutral form, usually between octanol and water – is 2.4. The “%ID/g (brain)” value in data set [4] (2 min) was 7.33 ± 1.54 %ID/g; in data set [4] (2 h) it was 1.80 ± 0.07 %ID/g. In addition, the “brain uptake ratio 2 min/2 h” value in data set [4] is listed as 4.07.
For `CNc1ccc(/C=C/c2ccc(OCCOCCOCCF)cc2)cc1` [[^18F]-Florbetaben], the “log P” value in data set [3] is recorded as 3.22. Besides, the “%ID/g (brain)” value in data set [4] (2 min) is listed as 4.77 %ID/g; in data set [4] (4 h), 0.95 %ID/g. The “brain uptake ratio 2 min/4 h” value in data set [4] is given as 5.02. In addition, the Kd in data set [2] was 16 nM.
With `CNc1ccc(-c2nc3ccc(O)cc3s2)cc1F` [[^18F]-Flutemetamol], the Kd in data set [2] was 6.7 nM.
For `Nc1ccc(C=Cc2ccc(OCCOCCOCC[18F])nc2)cc1` [desmethylated], the “brain uptake of metabolites of [18F]-AV-45” value in data set [4] (at 2 min) is given as 4.5 % ID/g.
For the molecule thioflavin S [reference compound], the “staining of diffuse plaques” value in data set [5] was “only weak staining of diffuse plaques”.
